Source: US7186354B2, “Anticorrosive treating concentrate” (NEC Electronics Corporation, priority 2000, dated 2007)

Test: solubility of BTA in water (FIG. 1)
Assay type: physicochemical

## c1ccc2[nH]nnc2c1 [BTA, benzotriazole]
10° C.
  solubility of BTA in water: about 1%
20° C.
  solubility of BTA in water: about 1.9%
30° C.
  solubility of BTA in water: about 4%
80° C.
  solubility of BTA in water: about 8%
Water of 20° C.
  solubility in water: about 1.9 wt-%
